Literature values, collected in patent US20060079481A1, “Method of treating/preventing mucositis” (priority 2004, published 2006).

What was measured:
[1] = test system: oral mucositis; settings: for risk of indirect mucotoxicity from bacteria and fungi: prophylactic use; for risk of indirect mucotoxicity from bacteria and fungi / effect in oral mucositis: literature reports
[2] = test system: oral mucositis; settings: Dodd et al. 1996

Molecule | risk of indirect mucotoxicity from bacteria and fungi [1] | effect in oral mucositis [1] | also measured
[H]/N=C(\N/C(=N/[H])NCCCCCCNC(=N)NC(=N)Nc1ccc(Cl)cc1)Nc1ccc(Cl)cc1 [chlorhexidine] | reduce the risk |  | 
CC(=O)CCCCn1c(=O)c2c(ncn2C)n(C)c1=O [pentoxifylline] |  | failed to show effect | 
Oc1ncnc2[nH]ncc12 [allopurinol] |  | failed to show effect | 
C[C@@H]1[C@H](O)[C@@H](C)/C=C/C=C/CC/C=C/C=C/C=C/C=C/C(O[C@H]2O[C@H](C)[C@@H](O)[C@H](N)[C@@H]2O)CC2O[C@](O)(CC(O)C(O)CCC(O)CC(O)CC(O)CC(=O)O[C@H]1C)CC(O)C2C(=O)O (stereo partly drawn) [nystatin] | reduce the risk |  | 
O=c1[nH]cc(F)c(=O)[nH]1 [5-fluorouracil] |  |  | prevalence of chemotherapy-induced oral mucositis [2]: 75%
Clc1ccccc1C(c1ccccc1)(c1ccccc1)n1ccnc1 [clotrimazole] | reduce the risk |  | 
CCCCC[C@H](O)/C=C/[C@H]1[C@H](O)CC(=O)[C@@H]1C/C=C\CCCC(=O)O [prostaglandin E2] |  | failed to show effect | 
Sucralfate |  |  | benefit in oral mucositis ([1]; patients receiving a cisplatin/fluorouracil regimen for various solid tumors (Pfeiffer et al. 1990)): modest benefit
filgrastim: a granulocyte colony-stimulating factor (protein, chains of the INN, looked up) MTPLGPASSLPQSFLLKCLEQVRKIQGDGAALQEKLCATYKLCHPEELVLLGHSLGIPWAPLSSCPSQALQLAGCLSQLHSGLFLYQGLLQALEGISPELGPTLDTLQLDVADFATTIWQQMEELGMAPALQPTQGAMPAFASAFQRRAGGVLVASHLQSFLEVSYRVLRHLAQP |  | failed to show effect | 
